Calls of active or inactive are those of the source. The rule behind the calls is not given here.
Assays:
[1] = biological target: T1, C-C chemokine receptor type 5 (Homo sapiens, UniProt P51681); assay: Displacement of [3H]TAK-779 from CCR5 (unknown origin) after 120 mins by scintillation counting method
Target sequence in this assay (P51681 whole entry): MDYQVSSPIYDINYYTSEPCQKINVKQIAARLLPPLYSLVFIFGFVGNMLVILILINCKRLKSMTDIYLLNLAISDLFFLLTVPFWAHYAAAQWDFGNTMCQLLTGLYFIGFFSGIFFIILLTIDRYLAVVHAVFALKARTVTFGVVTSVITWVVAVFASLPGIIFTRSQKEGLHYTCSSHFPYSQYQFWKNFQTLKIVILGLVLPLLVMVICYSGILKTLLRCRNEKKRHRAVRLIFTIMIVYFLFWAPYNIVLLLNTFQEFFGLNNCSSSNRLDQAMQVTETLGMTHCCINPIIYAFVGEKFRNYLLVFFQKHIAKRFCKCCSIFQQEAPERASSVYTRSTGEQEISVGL

[2] = biological target: T1, C-C chemokine receptor type 5; assay: Positive allosteric modulation of human CCR5 expressed in HEK293T cells co-expressing CAMYEL assessed as increase in CCL4-induced inhibition of forskolin-stimulated cAMP accumulation after 10 mins by BRET assay; assay type: functional, cell-based, HEK-293T
Target sequence in this assay (P51681 whole entry): as above

[3] = biological target: T2, C-C chemokine receptor type 2 (Homo sapiens, UniProt P41597); assay: Displacement of [3H]INCB3344 from human CCR2 expressed in human U2OS cells at 1 uM after 120 mins by scintillation spectrometric analysis relative to control; assay type: cell-based
Target sequence in this assay (P41597 whole entry, looked up): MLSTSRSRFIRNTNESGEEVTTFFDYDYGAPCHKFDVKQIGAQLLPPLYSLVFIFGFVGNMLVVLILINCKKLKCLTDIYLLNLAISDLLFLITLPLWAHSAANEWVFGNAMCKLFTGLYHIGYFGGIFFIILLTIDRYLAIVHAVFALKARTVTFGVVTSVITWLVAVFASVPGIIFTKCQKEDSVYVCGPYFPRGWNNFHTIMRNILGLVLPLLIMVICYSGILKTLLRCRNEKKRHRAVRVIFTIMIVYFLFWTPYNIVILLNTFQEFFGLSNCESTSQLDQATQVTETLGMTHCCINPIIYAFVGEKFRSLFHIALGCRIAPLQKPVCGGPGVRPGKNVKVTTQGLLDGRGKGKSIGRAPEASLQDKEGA

[4] = biological target: T1, C-C chemokine receptor type 5; assay: Displacement of [3H]TAK-779 from CCR5 (unknown origin) at 1 uM after 120 mins by scintillation counting method relative to control
Target sequence in this assay (P51681 whole entry, looked up): as the sequence (P51681 whole entry) above

[5] = biological target: T2, C-C chemokine receptor type 2; assay: Displacement of [3H]INCB3344 from human CCR2 expressed in human U2OS cells after 120 mins by scintillation spectrometric analysis; assay type: cell-based
Target sequence in this assay (P41597 whole entry): as the sequence (P41597 whole entry, looked up) above

[6] = biological target: T1, C-C chemokine receptor type 5; assay: Negative allosteric modulation of human CCR5 expressed in HEK293T cells co-expressing CAMYEL assessed as decrease in CCL4-induced inhibition of forskolin-stimulated cAMP accumulation after 10 mins by BRET assay; assay type: functional, cell-based; conditions: HEK-293T
Target sequence in this assay (P51681 whole entry, looked up): as the sequence (P51681 whole entry) above

[7] = biological target: T1, C-C chemokine receptor type 5; assay: Negative allosteric modulation of human CCR5 expressed in HEK293T cells co-expressing CAMYEL assessed as decrease in CCL5-induced inhibition of forskolin-stimulated cAMP accumulation after 10 mins by BRET assay; assay type: functional, cell-based; conditions: HEK-293T
Target sequence in this assay (P51681 whole entry, looked up): as the sequence (P51681 whole entry) above

[8] = biological target: T2, C-C chemokine receptor type 2; assay: Antagonist activity at human CCR2b expressed in human Chem1 cells assessed as inhibition of human recombinant CCL2 induced Ca2+ mobilization preincubated for 10 mins followed by CCL2 induction measured every sec for 120 secs by Fluo-4-AM dye-based fluorescence assay; assay type: functional, cell-based
Target sequence in this assay (P41597 whole entry): as the sequence (P41597 whole entry, looked up) above

[9] = biological target: T1, C-C chemokine receptor type 5; assay: Positive allosteric modulation of human CCR5 expressed in HEK293T cells co-expressing CAMYEL assessed as increase in CCL5-induced inhibition of forskolin-stimulated cAMP accumulation after 10 mins by BRET assay; assay type: functional, cell-based; conditions: HEK-293T
Target sequence in this assay (P51681 whole entry, looked up): as the sequence (P51681 whole entry) above

[10] = biological target: T1, C-C chemokine receptor type 5; assay: Intrinsic agonist activity at human CCR5 expressed in HEK293T cells co-expressing CAMYEL assessed as inhibition of forskolin-stimulated cAMP accumulation after 10 mins by BRET assay; assay type: functional, cell-based; conditions: HEK-293T
Target sequence in this assay (P51681 whole entry, looked up): as the sequence (P51681 whole entry) above

IC50 [1] [nM] | EC50 [2] [nM] | inhibition [3] [%] | inhibition [4] [%] | IC50 [5] [nM] | Activity [6] | Activity [7] | IC50 [8] [nM] | Activity [9] | Activity [10] | SMILES
2 | 7 |  |  |  |  |  |  |  |  | Cc1ccc(-c2ccc3c(c2)C=C(C(=O)Nc2ccc(C[N+](C)(C)C4CCOCC4)cc2)CCC3)cc1
 | > 10 | 15 | 0 |  |  |  |  |  |  | CC(=O)Nc1ccc2c(c1)C(=O)N(CC(C)C)CC(C(=O)Nc1ccc(CN(C)C3CCOCC3)cc1)=C2
 | > 10 |  | 0 | 387 | Active | Active | 140 |  |  | Cc1ccc(-c2ccc3c(c2)C=C(C(=O)Nc2ccc(CN(C)C4CCOCC4)cc2)CN(CC(C)C)C3=O)cc1
 | > 10 | 6 | 0 |  |  |  |  |  |  | CC(C)CN1CC(C(=O)Nc2ccc(CN(C)C3CCOCC3)cc2)=Cc2c(cccc2[N+](=O)[O-])C1=O
 | > 10 | 9 | 0 |  |  |  |  |  |  | CC(C)CN1CC(C(=O)Nc2ccc(CN(C)C3CCOCC3)cc2)=Cc2ccc([N+](=O)[O-])cc2C1=O
 | 2470 | 18 | 0 |  |  |  |  | inactive | inactive | CC(C)CN1CC(C(=O)Nc2ccc(CN(C)C3CCOCC3)cc2)=Cc2ccccc2C1=O
 | > 10 | 18 | 0 |  |  |  |  |  |  | CC(C)CN1CC(C(=O)Nc2ccc(CN(C)C3CCOCC3)cc2)=Cc2ccc(NS(C)(=O)=O)cc2C1=O
 | > 10 | 0 | 0 |  |  |  | 3000 |  |  | Cc1ccc(-c2ccc3c(c2)C(=O)N(CC(C)C)CC(C(=O)Nc2ccc(CN(C)C4CCOCC4)cc2)=C3)cc1
 | > 10 | 18 | 0 |  |  |  |  |  |  | CC(C)CN1CC(C(=O)Nc2ccc(S(=O)(=O)Nc3nccs3)cc2)=Cc2ccccc2C1=O
